Test results reported in patent publication US6541468B1, “Indolocarbazole derivatives useful for the treatment of neurodegenerative diseases and cancer” (Bayer Corporation, priority 1998, dated 2003).

Assays:
PK40 (ERK2) = molecular target: T1, PK40 (ERK2) (Homo sapiens, UniProt P28482); assay: PK40(ERK2) kinase inhibition assay; assay type: biochemical; conditions: 0.25 mM ATP, myelin basic protein substrate
T1 construct: made in house; host or cells: E. coli BL21 pLysS (printed 'B121pLysS'), pET-14b vector
T1 sequence (P28482 whole entry): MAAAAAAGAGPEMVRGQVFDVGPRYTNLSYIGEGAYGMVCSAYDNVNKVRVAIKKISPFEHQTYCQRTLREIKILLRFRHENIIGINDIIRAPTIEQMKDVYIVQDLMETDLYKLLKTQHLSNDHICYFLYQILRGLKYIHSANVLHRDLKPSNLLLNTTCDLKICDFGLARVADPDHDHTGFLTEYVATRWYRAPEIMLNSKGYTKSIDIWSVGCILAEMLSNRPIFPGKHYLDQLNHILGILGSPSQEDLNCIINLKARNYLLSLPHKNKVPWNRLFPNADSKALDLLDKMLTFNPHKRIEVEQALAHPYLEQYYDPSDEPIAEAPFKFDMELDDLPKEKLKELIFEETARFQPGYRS
Description: Preparation of ERK2: Recombinant human ERK2 with a N-terminal histidine (his) tag was prepared as follows: An ERK2 cDNA clone was amplified from a human frontal cortex library by PCR with primers matching the published human sequence [Gonzales F. A. et al, FEBS Lett. 304, 170-178 (1992)]. The histidine tag was introduced by site-directed mutagenesis. The cDNA was cloned into a pET-14b (Novagen) vector and transfected into the E. coli lysogen strain B121pLysS. Single colony transformants were grown in LB medium containing […] chloramphenicol to maintain pLysS and […] to an O.D.600 OF 0.6. The culture was then induced with 0.4 mM IPTG for 4 hours. The expressed ERK2 protein was then analyzed on a 10% SDS PAGE by both coomassie blue staining and anti-ERK Western blotting. […]
Enzyme, substrate and inhibitor were preincubated for 5-10 min at 4° C. in assay buffers containing a final concentration of 2% DMSO before initiating the reaction with 0.25 mM γ^2P-ATP. […] The filtermats were washed twice for several hours with TCA/PPA until all background radioactivity was removed. Precipitable counts were quantitated directly on the filtermat with a microbeta scintillation counter system (Wallac-Pharmacia). Inhibitor data were subjected to curve fitting and IC50 values were calculated from these curves using the GraphIt program.

PKA = molecular target: T2, PKA (Bos taurus, UniProt P00517); assay: PKA catalytic subunit inhibition assay; assay type: biochemical, bovine; conditions: footnote a) on the CII value: partial inhibition only
T2 construct: The catalytic subunit of bovine heart PKA was obtained commercially from Sigma; purchased Sigma; host or cells: bovine heart
Description: Preparation of cAMP-dependent Kinase: The catalytic subunit of bovine heart PKA was obtained commercially from Sigma.
The catalytic subunit of PKA was assayed in 50 μl 25 mM HEPES, pH 7.0, 10 mM MgCl2, 1 mM EDTA, 1 mM DTT, using 70 ng PKA and 0.1 mg/mL human recombinant tau protein as a substrate.
(§1) Enzyme, substrate and inhibitor were preincubated for 5-10 min at 4° C. in assay buffers containing a final concentration of 2% DMSO before initiating the reaction with 0.25 mM γ^2P-ATP. Samples were incubated for 30 min at 37° C. and reactions were terminated with 10% trichloracetic acid/2% sodium pyrophosphate (TCA/PPA), followed by filtration over a glass fiber filtermat (type A) with a cell harvester (Tomtec). The filtermats were washed twice for several hours with TCA/PPA until all background radioactivity was removed. Precipitable counts were quantitated directly on the filtermat with a microbeta scintillation counter system (Wallac-Pharmacia). Inhibitor data were subjected to curve fitting and IC50 values were calculated from these curves using the GraphIt program.

PKC = system: T3, PKC; assay: PKC inhibition assay; assay type: biochemical, rat; conditions: footnote a) on the CII value: partial inhibition only
T3 construct: PKC was purified from rat brain using the method of Woodgett J. R. and Hunter T., J. Biol. Chem 262, 4836-4843 (1987)
Description: Preparation of PKC: PKC was purified from rat brain using the method of Woodgett J. R. and Hunter T., J. Biol. Chem 262, 4836-4843 (1987).
PKC was assayed in 50μ 25 mM HEPES, pH 7.0, 10 mM MgCl2, 2 mM CaCl2, 1 mM EDTA, 1 mM DTT, 0.25 mM ATP, 0.2 mg/mL phosphatidylserine, using 20 ng PKC and 0.08 mg/mL histone III-S as a substrate.
as §1

SMILES	IC50 (PK40 (ERK2)) [nM]	IC50 (PKA) [nM]	IC50 (PKC) [nM]
COC(=O)[C@@]1(O)C[C@H]2C[C@@H]1n1c3ccccc3c3c4c(c5c6ccccc6n2c5c31)C(=O)NC4=O (relative stereo) [CIII, 9,12-Methano-1H-diindolo[1,2,3-fg:3′,2′,1′-kl]pyrrolo[3,4-I][1,6] benzodiazocine-10-carboxylic acid, 2,3,9,10,11,12-hexahydro-10-hydroxy-1,3-dioxomethyl ester, (9α,10β,12α)]	> 30000	> 100000	> 100000
CNC(=O)[C@]1(O)CC2CC1n1c3ccccc3c3c4c(c5c6ccccc6n2c5c31)C(=O)NC4=O (stereo partly drawn) [CII, 9,12-Methano-1H-diindolo[1,2,3-fg:3′,2′,1′-kl]pyrrolo[3,4-I][1,6] benzodiazocine-10-carboxamide, 2,3,9,10,11,12-hexahydro-10-hydroxy-N-methyl-1,3-dioxo-(9α,10β,12α)]	44	650	650
